Values of other authors as cited in patent US8288391B2, “Pyrazinoylguanidine compounds for use as taste modulators” (Parion Sciences, Inc., priority 2007, dated 2012).

Target: T1, ENaC (Rattus norvegicus, UniProt P37089+P37090+P37091)
T1 construct: receptor cells in taste buds and some surrounding non-taste epithelia) through apical membrane ENaC; host or cells: rat in vivo: taste nerve (chorda tympani) response, with endogenous channel of lingual taste receptor cells
T1 sequence (P37089 1-698): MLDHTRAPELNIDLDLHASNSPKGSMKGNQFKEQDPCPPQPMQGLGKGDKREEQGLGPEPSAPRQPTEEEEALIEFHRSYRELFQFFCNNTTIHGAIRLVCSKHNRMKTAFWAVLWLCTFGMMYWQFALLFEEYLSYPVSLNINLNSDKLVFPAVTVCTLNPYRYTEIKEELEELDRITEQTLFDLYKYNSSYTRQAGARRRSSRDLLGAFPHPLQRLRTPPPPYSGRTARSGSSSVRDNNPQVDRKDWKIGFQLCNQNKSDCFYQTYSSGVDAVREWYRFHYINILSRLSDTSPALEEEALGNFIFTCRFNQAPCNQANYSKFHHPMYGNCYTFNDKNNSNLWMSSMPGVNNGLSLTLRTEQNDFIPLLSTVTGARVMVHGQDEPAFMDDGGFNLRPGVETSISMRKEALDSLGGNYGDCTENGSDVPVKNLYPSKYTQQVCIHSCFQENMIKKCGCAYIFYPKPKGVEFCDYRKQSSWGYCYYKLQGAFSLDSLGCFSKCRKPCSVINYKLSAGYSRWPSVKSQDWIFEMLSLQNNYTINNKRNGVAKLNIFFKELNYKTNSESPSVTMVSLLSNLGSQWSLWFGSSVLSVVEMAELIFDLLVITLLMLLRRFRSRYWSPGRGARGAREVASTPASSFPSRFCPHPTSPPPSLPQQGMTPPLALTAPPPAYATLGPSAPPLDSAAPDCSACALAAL
T1 sequence (P37090 1-638): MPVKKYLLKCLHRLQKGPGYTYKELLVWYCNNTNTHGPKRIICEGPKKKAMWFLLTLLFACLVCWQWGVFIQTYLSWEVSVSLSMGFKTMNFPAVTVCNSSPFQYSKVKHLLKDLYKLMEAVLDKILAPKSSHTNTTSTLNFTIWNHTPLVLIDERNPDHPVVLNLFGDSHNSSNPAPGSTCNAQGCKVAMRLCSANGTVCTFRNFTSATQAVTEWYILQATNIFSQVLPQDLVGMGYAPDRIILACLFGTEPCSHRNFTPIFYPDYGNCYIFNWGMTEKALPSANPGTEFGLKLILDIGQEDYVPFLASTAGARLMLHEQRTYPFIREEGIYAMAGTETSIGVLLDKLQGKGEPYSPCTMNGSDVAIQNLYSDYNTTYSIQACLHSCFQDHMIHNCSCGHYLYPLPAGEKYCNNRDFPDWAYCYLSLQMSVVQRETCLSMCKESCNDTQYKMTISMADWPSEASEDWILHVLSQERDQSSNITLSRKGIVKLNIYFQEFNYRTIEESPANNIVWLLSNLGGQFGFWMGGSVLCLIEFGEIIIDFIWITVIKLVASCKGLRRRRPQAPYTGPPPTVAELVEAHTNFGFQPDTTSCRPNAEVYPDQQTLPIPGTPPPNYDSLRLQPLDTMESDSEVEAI
T1 sequence (P37091 1-650): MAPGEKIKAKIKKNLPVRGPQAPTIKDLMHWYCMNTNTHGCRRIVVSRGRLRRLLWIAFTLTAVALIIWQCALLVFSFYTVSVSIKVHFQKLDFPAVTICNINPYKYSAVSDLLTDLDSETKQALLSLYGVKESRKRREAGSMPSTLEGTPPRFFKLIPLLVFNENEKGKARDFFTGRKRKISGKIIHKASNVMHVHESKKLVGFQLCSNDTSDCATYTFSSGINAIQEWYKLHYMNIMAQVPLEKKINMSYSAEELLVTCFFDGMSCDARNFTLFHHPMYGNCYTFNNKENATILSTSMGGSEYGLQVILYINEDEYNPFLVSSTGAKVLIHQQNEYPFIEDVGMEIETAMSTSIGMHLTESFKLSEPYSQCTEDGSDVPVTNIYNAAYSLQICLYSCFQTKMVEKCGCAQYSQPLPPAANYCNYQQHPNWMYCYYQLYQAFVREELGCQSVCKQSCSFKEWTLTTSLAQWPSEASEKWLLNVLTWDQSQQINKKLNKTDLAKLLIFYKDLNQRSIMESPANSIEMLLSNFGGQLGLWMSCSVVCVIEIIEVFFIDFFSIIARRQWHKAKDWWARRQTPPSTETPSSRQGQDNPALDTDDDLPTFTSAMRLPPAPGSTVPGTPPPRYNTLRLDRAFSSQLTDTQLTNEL
Conditions: rats; 100 mM NaCl; share of total taste response

For N=C(N)NC(=O)c1nc(Cl)c(N)nc1N [amiloride], the “amiloride-sensitive part of the total response to NaCl” value is given as 75%-80%.
